For 17 compounds, TGI results are on record in PubChem BioAssay (NCI).

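96-well plates; 48 h exposure; 5 concentrations. Endpoints by linear interpolation between flanking doses. Not reached: highest tested concentration assigned. TGI denotes the concentration required for complete inhibition of growth.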

Test systems include HCC-2998 colon; K-562 leukemia; SK-MEL-2 melanoma; SK-MEL-5 melanoma; SR leukemia; SW-620 colon; U251 CNS; KM12 colon; SF-539 CNS; MDA-N.
Common to all, as to test: growth of human tumour cells (NCI), 48 h

As for `COC(=O)c1c(CC(=O)OC(C)C)cc2n(c1=O)Cc1c-2nc2ccccc2c1OC`, the TGI with HCC-2998 colon, in the assay with K-562 leukemia, in the assay on SK-MEL-2 melanoma, with SK-MEL-5 melanoma, in the assay with SR leukemia and in the assay on SW-620 colon was above 100 µM throughout. Also, the TGI in the assay on U251 CNS was above 100 µM.

With `Cc1c(C(=O)O)sc2nc[nH]c(=O)c12`, the TGI in the assay with HCC-2998 colon, in the assay on K-562 leukemia, in the assay with KM12 colon, in the assay with SF-539 CNS, with SK-MEL-2 melanoma and in the assay with SK-MEL-5 melanoma was above 100 µM throughout. Moreover, the TGI with SW-620 colon and in the assay with U251 CNS was above 100 µM in each case.

For `O=Cn1c2ccccc2c2ccccc21`, the TGI with HCC-2998 colon, in the assay with K-562 leukemia, in the assay with KM12 colon, with SF-539 CNS, in the assay on SK-MEL-2 melanoma and in the assay on SK-MEL-5 melanoma was above 100 µM in each case. In addition, the TGI in the assay on SR leukemia, in the assay on SW-620 colon and in the assay with U251 CNS was above 100 µM each time.

Turning to `CN1COCN=C1NC#N`, the TGI with HCC-2998 colon, with K-562 leukemia, in the assay with KM12 colon, with SF-539 CNS, with SK-MEL-2 melanoma and in the assay with SW-620 colon was above 100 µM each time.

With `c1ccc(C2N=C(c3ccccn3)C(c3ccccn3)=NC2c2ccccc2)cc1` (stereo not given), the TGI with HCC-2998 colon, in the assay on K-562 leukemia, in the assay on KM12 colon, in the assay on SF-539 CNS, in the assay on SK-MEL-2 melanoma and in the assay with SK-MEL-5 melanoma was above 100 µM each time. Moreover, the TGI in the assay with SW-620 colon and in the assay on U251 CNS was above 100 µM each time.

On to `NCCCNCCSP(=O)(O)O`, for which the TGI was above 750 µM with HCC-2998 colon; above 750 µM in the assay with K-562 leukemia; above 750 µM in the assay with KM12 colon; above 750 µM in the assay on SF-539 CNS; above 700 µM in the assay on SK-MEL-2 melanoma; above 750 µM in the assay with SK-MEL-5 melanoma. Moreover, the TGI in the assay on SW-620 colon and in the assay with U251 CNS was above 750 µM throughout.

Consider `CC1(C)CC(=O)C2=C(C1)NC(=S)C(C#N)C2c1ccccc1` (stereo not given), for which the TGI with HCC-2998 colon, with K-562 leukemia, with MDA-N, with SF-539 CNS, in the assay with SK-MEL-2 melanoma and in the assay on SK-MEL-5 melanoma was above 100 µM throughout. Moreover, the TGI with SW-620 colon and in the assay with U251 CNS was above 100 µM throughout.

With `CNCC(SC)c1ccc(O)c(O)c1` (stereo not given), the TGI in the assay with HCC-2998 colon is 31.2 µM; with K-562 leukemia, 59 µM; in the assay with KM12 colon, above 100 µM; in the assay on MDA-N it was 38.1 µM; with SK-MEL-2 melanoma, above 100 µM; with SK-MEL-5 melanoma it was above 100 µM. Also, the TGI with SW-620 colon was 46.9 µM; in the assay with U251 CNS, above 100 µM.

With `C/C(=N\Nc1nc2cc(F)ccc2s1)c1ccccn1`, the TGI with K-562 leukemia is above 43.8 µM; in the assay with KM12 colon, above 23.4 µM; in the assay on SF-539 CNS, above 23.4 µM; in the assay on SK-MEL-2 melanoma, 7.33 µM; in the assay on SK-MEL-5 melanoma, 5.49 µM; in the assay on SR leukemia it was above 100 µM. For the same compound, the TGI in the assay on SW-620 colon was 5.37 µM; in the assay on U251 CNS, above 33.3 µM.

Consider `Cc1ccc(N2Cc3c(ccc4ccccc34)OP2(=S)N2CCCC2)cc1` (stereo not given), for which the TGI in the assay on HCC-2998 colon, in the assay on K-562 leukemia, with KM12 colon, with SF-539 CNS, in the assay with SK-MEL-2 melanoma and with SK-MEL-5 melanoma was above 100 µM throughout. For the same compound, the TGI in the assay on SW-620 colon and in the assay on U251 CNS was above 100 µM in each case.

Regarding `O=c1cc(-c2ccccc2)oc2cc(OCCCCCCCCCCOc3ccc4c(=O)cc(-c5ccccc5)oc4c3)ccc12`, the TGI in the assay on HCC-2998 colon, in the assay on K-562 leukemia, in the assay on KM12 colon, in the assay on SF-539 CNS, in the assay on SK-MEL-2 melanoma and in the assay on SK-MEL-5 melanoma was above 100 µM each time. The TGI in the assay with SR leukemia, with SW-620 colon and with U251 CNS was above 100 µM throughout.

In the case of `Cc1ccc(N=Nc2c(O)ccc3ccccc23)c(C)c1`, the TGI in the assay with K-562 leukemia, with KM12 colon, with MDA-N, with SK-MEL-2 melanoma, with SK-MEL-5 melanoma and in the assay on SW-620 colon was above 100 µM each time. In addition, in the assay on U251 CNS, the TGI was above 100 µM.

`CCC1OC2(C)CC(C#N)(C#N)C1(C#N)C(=N)O2` (stereo not given): the TGI with K-562 leukemia, with KM12 colon, in the assay with MDA-N, with SF-539 CNS, in the assay with SK-MEL-2 melanoma and with SK-MEL-5 melanoma was above 100 µM each time. The TGI in the assay on SW-620 colon and with U251 CNS was above 100 µM in each case.

Regarding `CC(C)(C)N=C1C(=O)C2(C)CCC1C2(C)C` (stereo not given), the TGI in the assay with HCC-2998 colon, with K-562 leukemia, in the assay with KM12 colon, in the assay with SF-539 CNS, in the assay with SK-MEL-2 melanoma and in the assay on SK-MEL-5 melanoma was above 100 µM throughout. In addition, the TGI in the assay with SR leukemia, with SW-620 colon and in the assay on U251 CNS was above 100 µM throughout.

With `Oc1c(NCn2nc(CCCCCCCCc3nn(CNc4ccc5ccccc5c4O)c(=S)o3)oc2=S)ccc2ccccc12`, the TGI in the assay with HCC-2998 colon was above 100 µM; in the assay with K-562 leukemia, above 100 µM; with KM12 colon, above 100 µM; in the assay on MDA-N, 48.5 µM; with SK-MEL-2 melanoma it was above 100 µM; in the assay with SK-MEL-5 melanoma, above 100 µM. For the same compound, the TGI in the assay with SW-620 colon and in the assay with U251 CNS was above 100 µM each time.

Consider `COC1CCC(CO)OO1` (stereo not given), for which the TGI in the assay on K-562 leukemia, in the assay with KM12 colon, with SF-539 CNS, in the assay on SK-MEL-2 melanoma, with SR leukemia and with U251 CNS was above 100 µM throughout.

For the compound `C=CCCCN(C(=O)c1ccccc1)c1ccc(C(=O)OC)o1`, the TGI in the assay on KM12 colon, in the assay on MDA-N, in the assay with SF-539 CNS, in the assay on SK-MEL-2 melanoma and in the assay with SK-MEL-5 melanoma was above 100 µM each time.
